Our source for the EC50 values is ChEMBL document CHEMBL4373745, “Design, synthesis and cytotoxicity of BODIPY FL labelled triterpenoids” (Eur J Med Chem, 2020).

The test system of assay [1] is A-375. Put plainly: Cytotoxicity against human A375 cells assessed as reduction in cell viability incubated for 96 hrs by SRB assay. The settings on record: A-375, 96 h. It counts as functional, cell-based. In general terms: The SRB assay estimates cell density from bound dye.
The subject of assay [2] is HT-29. In words: Cytotoxicity against human HT-29 cells assessed as reduction in cell viability incubated for 96 hrs by SRB assay. It counts as functional, cell-based. Conditions: HT-29, 96 h.
For assay [3], the system named is MCF7. Put plainly: Cytotoxicity against human MCF7 cells assessed as reduction in cell viability incubated for 96 hrs by SRB assay. Type of assay: functional, cell-based. Conditions: MCF7, 96 h.
For assay [4], the system named is A2780. Put plainly: Cytotoxicity against human A2780 cells assessed as reduction in cell viability incubated for 96 hrs by SRB assay. It counts as functional, cell-based. Conditions: A2780, 96 h.
Assay [5] concerns FaDu. In words: Cytotoxicity against human FADU cells assessed as reduction in cell viability incubated for 96 hrs by SRB assay. It counts as functional, cell-based.
For assay [6], the system named is NIH3T3. Put plainly: Cytotoxicity against mouse NIH/3T3 cells assessed as reduction in cell viability incubated for 96 hrs by SRB assay. Type of assay: cell-based. The settings on record: NIH3T3, 96 h.

What is called EC50 is the midpoint of the concentration-response curve. `C=C(C)[C@@H]1CC[C@]2(CO)CC[C@]3(C)[C@H](CC[C@@H]4[C@@]5(C)CC[C@H](O)C(C)(C)[C@@H]5CC[C@]43C)[C@@H]12` [BETULIN]: the EC50 in assay [1], in assay [2], in assay [3], in assay [4], in assay [5] and in assay [6] was above 30 µM in each case.
As for `CC(=O)O[C@H]1CC[C@]2(C)[C@H]3C(=O)C=C4[C@@H]5C[C@@](C)(C(=O)NCCNC(=O)CCC6=[N+]7C(=Cc8c(C)cc(C)n8[B-]7(F)F)C=C6)CC[C@]5(C)CC[C@@]4(C)[C@]3(C)CC[C@H]2C1(C)C`, the EC50 is 23.9 µM in assay [1]; 26.5 µM in assay [2]; 7.2 µM in assay [3]; 18.4 µM in assay [4]; above 30 µM in assay [5]; above 30 µM in assay [6].
For `CC(=O)O[C@H]1CC[C@]2(C)[C@H]3C(=O)C=C4[C@@H]5C[C@@](C)(C(=O)N6CCNCC6)CC[C@]5(C)CC[C@@]4(C)[C@]3(C)CC[C@H]2C1(C)C`, the EC50 worked out at 4.4 µM in assay [2]; 8.4 µM in assay [3]; 8.2 µM in assay [4]; 8.7 µM in assay [5]; 8.7 µM in assay [6].
For `C=C(C)[C@@H]1CC[C@]2(COC(=O)CCC3=[N+]4C(=Cc5c(C)cc(C)n5[B-]4(F)F)C=C3)CC[C@]3(C)[C@H](CC[C@@H]4[C@@]5(C)CC[C@H](OC(C)=O)C(C)(C)[C@@H]5CC[C@]43C)[C@@H]12`, the EC50 in assay [1] is above 30 µM; in assay [2], above 30 µM; in assay [3], 28.9 µM; in assay [4], above 30 µM; in assay [5] it was above 30 µM; in assay [6], above 30 µM.
On to `CC(=O)O[C@H]1CC[C@]2(C)[C@H]3CC=C4[C@@H]5CC(C)(C)CC[C@]5(C(=O)N5CCN(C(=O)CCC6=[N+]7C(=Cc8c(C)cc(C)n8[B-]7(F)F)C=C6)CC5)CC[C@@]4(C)[C@]3(C)CC[C@H]2C1(C)C`, for which the EC50 in assay [1] is 29.8 µM; in assay [2], above 30 µM; in assay [3], above 30 µM; in assay [4], above 30 µM; in assay [5], above 30 µM; in assay [6] it was above 30 µM.
Consider `CC(=O)O[C@H]1CC[C@]2(C)[C@H]3CC=C4[C@@H]5[C@@H](C)[C@H](C)CC[C@]5(C(=O)NCCNC(=O)CCC5=[N+]6C(=Cc7c(C)cc(C)n7[B-]6(F)F)C=C5)CC[C@@]4(C)[C@]3(C)CC[C@H]2C1(C)C`, for which the 50% effective concentration (EC50) in assay [1] is 4 µM; in assay [2], above 30 µM; in assay [3], 2.2 µM; in assay [4] it was 8.7 µM; in assay [5], 5.7 µM; in assay [6], 3 µM.
For the molecule `CC(=O)O[C@H]1CC[C@]2(C)[C@H]3CC=C4[C@@H]5[C@@H](C)[C@H](C)CC[C@]5(C(=O)N5CCN(C(=O)CCC6=[N+]7C(=Cc8c(C)cc(C)n8[B-]7(F)F)C=C6)CC5)CC[C@@]4(C)[C@]3(C)CC[C@H]2C1(C)C`, the EC50 in assay [1] was 21.6 µM; in assay [2], above 30 µM; in assay [3] it was 24.4 µM; in assay [4], above 30 µM; in assay [5], above 30 µM; in assay [6], above 30 µM.
On to `C=C(C)[C@@H]1CC[C@]2(CO)CC[C@]3(C)[C@H](CC[C@@H]4[C@@]5(C)CC[C@H](OC(C)=O)C(C)(C)[C@@H]5CC[C@]43C)[C@@H]12`, for which the concentration for a half-maximal effect (EC50) in assay [1], in assay [2], in assay [5] and in assay [6] was above 30 µM each time.
In the case of `CC(=O)O[C@H]1CC[C@]2(C)[C@H]3CC=C4[C@@H]5CC(C)(C)CC[C@]5(C(=O)NCCN)CC[C@@]4(C)[C@]3(C)CC[C@H]2C1(C)C`, the EC50 in assay [2] is 2 µM; in assay [3], 1.7 µM; in assay [4], 3.1 µM; in assay [5], 4.3 µM; in assay [6] it was 2.1 µM.
For `C[C@H]1[C@H](C)CC[C@]2(C(=O)O)CC[C@]3(C)C(=CC[C@@H]4[C@@]5(C)CC[C@H](O)C(C)(C)[C@@H]5CC[C@]43C)[C@H]12` [URSOLIC ACID], in assay [6], the EC50 turned out to be 13.1 µM.
Take `C=C(C)[C@@H]1CC[C@]2(COC(C)=O)CC[C@]3(C)[C@H](CC[C@@H]4[C@@]5(C)CC[C@H](OC(C)=O)C(C)(C)[C@@H]5CC[C@]43C)[C@@H]12` [BETULIN DIACETATE]: the EC50 in assay [1], in assay [2], in assay [3], in assay [4], in assay [5] and in assay [6] was above 30 µM in each case.
For `CC1(C)CC[C@]2(C(=O)O)CC[C@]3(C)C(=CC[C@@H]4[C@@]5(C)CC[C@H](O)C(C)(C)[C@@H]5CC[C@]43C)[C@@H]2C1` [OLEANOLIC_ACID], the EC50 in assay [4] and in assay [5] was above 30 µM each time.
With `CC1(C)[C@@H](O)CC[C@]2(C)[C@H]3C(=O)C=C4[C@@H]5C[C@@](C)(C(=O)O)CC[C@]5(C)CC[C@@]4(C)[C@]3(C)CC[C@@H]12` [ENOXOLONE], in assay [5], the EC50 was above 30 µM.
As to `C=C(C)[C@@H]1CC[C@]2(C(=O)N3CCN(C(=O)CCC4=[N+]5C(=Cc6c(C)cc(C)n6[B-]5(F)F)C=C4)CC3)CC[C@]3(C)[C@H](CC[C@@H]4[C@@]5(C)CC[C@H](OC(C)=O)C(C)(C)[C@@H]5CC[C@]43C)[C@@H]12`, the EC50 in assay [1], in assay [2], in assay [3], in assay [4], in assay [5] and in assay [6] was above 30 µM in each case.
`C=C(C)[C@@H]1CC[C@]2(C(=O)NCCN)CC[C@]3(C)[C@H](CC[C@@H]4[C@@]5(C)CC[C@H](OC(C)=O)C(C)(C)[C@@H]5CC[C@]43C)[C@@H]12`: the EC50 was 1 µM in assay [2]; 1.3 µM in assay [3]; 1.4 µM in assay [4]; 1.2 µM in assay [5]; 1.4 µM in assay [6].
With `C=C(C)[C@@H]1CC[C@]2(C(=O)N3CCNCC3)CC[C@]3(C)[C@H](CC[C@@H]4[C@@]5(C)CC[C@H](OC(C)=O)C(C)(C)[C@@H]5CC[C@]43C)[C@@H]12`, in assay [5], the EC50 amounted to 1.3 µM.
`CC(=O)O[C@H]1CC[C@]2(C)[C@H]3CC=C4[C@@H]5[C@@H](C)[C@H](C)CC[C@]5(C(=O)NCCN)CC[C@@]4(C)[C@]3(C)CC[C@H]2C1(C)C`: the EC50 stood at 1.8 µM in assay [2]; 2 µM in assay [3]; 2.3 µM in assay [4]; 3.7 µM in assay [5]; 2.6 µM in assay [6].
As to `Cc1cc(C)n2c1C=C1C=CC(CCC(=O)O)=[N+]1[B-]2(F)F`, the EC50 in assay [1], in assay [2], in assay [3], in assay [4], in assay [5] and in assay [6] was above 30 µM each time.
Regarding `CC(=O)O[C@H]1CC[C@]2(C)[C@H]3CC=C4[C@@H]5CC(C)(C)CC[C@]5(C(=O)NCCNC(=O)CCC5=[N+]6C(=Cc7c(C)cc(C)n7[B-]6(F)F)C=C5)CC[C@@]4(C)[C@]3(C)CC[C@H]2C1(C)C`, the EC50 in assay [1] is 4.3 µM; in assay [2], above 30 µM; in assay [3], 2.3 µM; in assay [4], 10.3 µM; in assay [5] it was 7 µM; in assay [6], 3.4 µM.
As to `C=C(C)[C@@H]1CC[C@]2(COC(C)=O)CC[C@]3(C)[C@H](CC[C@@H]4[C@@]5(C)CC[C@H](OC(=O)CCC6=[N+]7C(=Cc8c(C)cc(C)n8[B-]7(F)F)C=C6)C(C)(C)[C@@H]5CC[C@]43C)[C@@H]12`, the EC50 in assay [2] came out at 3.1 µM; in assay [3], 4.3 µM; in assay [4], 2.7 µM; in assay [5], 4.7 µM; in assay [6] it was 9.2 µM.
Take `CC(=O)O[C@H]1CC[C@]2(C)[C@H]3CC=C4[C@@H]5CC(C)(C)CC[C@]5(C(=O)N5CCNCC5)CC[C@@]4(C)[C@]3(C)CC[C@H]2C1(C)C`: the 50% effective concentration (EC50) in assay [5] was 1.6 µM.
As to `C=C(C)[C@@H]1CC[C@]2(C(=O)NCCNC(=O)CCC3=[N+]4C(=Cc5c(C)cc(C)n5[B-]4(F)F)C=C3)CC[C@]3(C)[C@H](CC[C@@H]4[C@@]5(C)CC[C@H](OC(C)=O)C(C)(C)[C@@H]5CC[C@]43C)[C@@H]12`, the EC50 in assay [1] is above 30 µM; in assay [2], above 30 µM; in assay [3] it was 11.3 µM; in assay [4], above 30 µM; in assay [5], above 30 µM; in assay [6] it was above 30 µM.
Regarding `CC(=O)O[C@H]1CC[C@]2(C)[C@H]3C(=O)C=C4[C@@H]5C[C@@](C)(C(=O)NCCN)CC[C@]5(C)CC[C@@]4(C)[C@]3(C)CC[C@H]2C1(C)C`, the EC50 in assay [2] came to 4.3 µM; in assay [3] it was 3.2 µM; in assay [4], 2 µM; in assay [5], 5.7 µM; in assay [6], 4.3 µM.
On to `CC(=O)O[C@H]1CC[C@]2(C)[C@H]3CC=C4[C@@H]5[C@@H](C)[C@H](C)CC[C@]5(C(=O)N5CCNCC5)CC[C@@]4(C)[C@]3(C)CC[C@H]2C1(C)C`, for which the EC50 in assay [5] was 1.9 µM.
`CC(=O)O[C@H]1CC[C@]2(C)[C@H]3C(=O)C=C4[C@@H]5C[C@@](C)(C(=O)N6CCN(C(=O)CCC7=[N+]8C(=Cc9c(C)cc(C)n9[B-]8(F)F)C=C7)CC6)CC[C@]5(C)CC[C@@]4(C)[C@]3(C)CC[C@H]2C1(C)C`: the EC50 in assay [1] is 8.3 µM; in assay [2], above 30 µM; in assay [3], 7.9 µM; in assay [4] it was 7.8 µM; in assay [5], 8.6 µM; in assay [6] it was 9.1 µM.
